Legend:
Assay type in all cases: cell-based, Staphylococcus aureus
S. aureus ATCC 29213 = experiment: MIC, microdilution in BHI 48 h (Examples 1, 3)
[1] = tested on: S. aureus Newbould (normal strain); experiment: MIC, microdilution in BHI 48 h; conditions: Newbould, normal strain
[2] = tested on: S. aureus SCV NewbouldΔhemB; experiment: MIC, microdilution in BHI 48 h; conditions: NewbouldΔhemB, SCV
[3] = tested on: S. aureus CF07-L (normal strain); experiment: MIC, microdilution in BHI 48 h (Examples 1, 3)
S. aureus SCV CF07-S = experiment: MIC, microdilution in BHI 48 h (Examples 1, 3)
[4] = tested on: S. aureus CF1A-L (normal strain); experiment: MIC, microdilution in BHI 48 h; conditions: CF1A-L, normal strain
S. aureus SCV CF1D-S = experiment: MIC, microdilution in BHI 48 h; conditions: CF1D-S, SCV
[5] = tested on: S. aureus SCVs (NewbouldΔhemB, CF07-S and CF1D-S); experiment: MIC, microdilution in BHI 48 h, summary for SCVs; conditions: all SCVs of Table 1

`C[C@H]1CC[C@]2(NC1)O[C@H]1C[C@H]3[C@@H]4CC[C@H]5C[C@@H](O[C@@H]6O[C@H](CO)[C@H](O[C@@H]7O[C@H](CO)[C@@H](O)[C@H](O[C@@H]8OC[C@@H](O)[C@H](O)[C@H]8O)[C@H]7O[C@@H]7O[C@H](CO)[C@@H](O)[C@H](O)[C@H]7O)[C@H](O)[C@H]6O)CC[C@]5(C)[C@H]4CC[C@]3(C)[C@H]1[C@@H]2C` [Tomatine, tomatine] was tested, and the MIC (S. aureus ATCC 29213; ATCC 29213 + HQNO at 20 μg/ml) was >16 µg/mL, the MIC (S. aureus ATCC 29213; ATCC 29213, without HQNO) was >16 µg/mL and the MIC (S. aureus ATCC 29213; ATCC 29213 in BHI) was >16 µg/mL. For the same compound, the MIC (S. aureus ATCC 29213; ATCC 29213 in MHBCA) was >16 µg/mL, the MIC [1] was >16 µg/mL and the MIC [2] was >16 µg/mL. The MIC ([3]; CF07-L + HQNO at 20 μg/ml) was >16 µg/mL, the MIC ([3]; CF07-L, normal strain) was >16 µg/mL and the MIC ([3]; CF07-L, without HQNO) was >16 µg/mL. For the same compound, the MIC (S. aureus SCV CF07-S; CF07-S + HQNO at 20 μg/ml) was >16 µg/mL, the MIC (S. aureus SCV CF07-S; CF07-S, SCV) was >16 µg/mL and the MIC (S. aureus SCV CF07-S; CF07-S, without HQNO) was >16 µg/mL. For the same compound, the MIC [4] was >16 µg/mL, the MIC (S. aureus SCV CF1D-S) was >16 µg/mL and the “MIC against all SCVs” value [5] was “no MIC was observed”.
